Measurements published in the supplement of paper PMC11208160.

Experiment: recombinant barcode read abundance after kanamycin selection (control-corrected) (log10(CPM+1)); higher = more efficient recombination; sequences stand for … in AGTGCAGAGAAAATCGGCCAGTTTTCTCTGCCTGCAGTCCGCATGCCGT…AGATTTATGCAGCGGACTGCCTTTCTCCCAAAGTGATAAACCGGACAGTATCATGGACCGGTTTTCCCGGTAATCCGTATTTGCAAGGTTGGTTTCACT; site = the 11-nt target
In short: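 Recombination efficiency draws on barcodes counted at recombinant junctions in a pooled E. coli screen of targets paired with IS621 bridge RNA target-binding loops. The counts were converted to counts per million, averaged and corrected against the chloramphenicol/ampicillin LB agar control, then reported as log10(CPM+1). Selection plates held chloramphenicol/ampicillin/kanamycin with 0.1 mM IPTG, with two replicates per condition.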
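Further: IS621 recombinase and bridge RNA in Escherichia coli cells.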

Row | Sequence | recombinant barcode read abundance (log10)
1 | ATATGTCCTTGGGTTCTAACCTGTTGCAG (site ATATGTCCTCT) | 1.88
2 | ATATTATCTTGGGTTCTAACCTGTTGCCA (site ATATGATCTAG) | 0.0788
3 | ATATTATCTTGGGTTCTAACCTGTTGCCA (site ATATTATCTTG) | 0.29
4 | ATATTGTCTTGGGTTCTAACCTGTTGCCA (site ATATTGCCTAG) | 0.0374
5 | ATATTGTCTTGGGTTCTAACCTGTTGCCA (site ATATTGTCTTG) | 0.611
6 | ATCACTACTTGGGTTCTAACCTGTTGCCT (site ATCACTACTAG) | 0.207
7 | ATCACTACTTGGGTTCTAACCTGTTGCCT (site CTTACTACTAG) | 0.0823
8 | ATCCGCTCTTGGGTTCTAACCTGTTGCCT (site ATCCGCTCTAG) | 2.06
9 | ATCCGCTCTTGGGTTCTAACCTGTTGCCT (site CTCCGCTCTAG) | 1
10 | ATCCGCTCTTGGGTTCTAACCTGTTGCCT (site GTCCGCTCTAG) | 0.0221
11 | ATCCGCTCTTGGGTTCTAACCTGTTGCCT (site TTCCGCTCTAG) | 0.771
12 | ATCCTACCTTGGGTTCTAACCTGTTGCTT (site ATCCTACCTAA) | 1.72
13 | ATCCTACCTTGGGTTCTAACCTGTTGCTT (site ATCGTACCTCA) | 0.113
14 | ATCGAGTCTTGGGTTCTAACCTGTTGCCA (site ATCGAGTCTTG) | 0.276
15 | ATCGAGTCTTGGGTTCTAACCTGTTGCCA (site CAAATCCCTAC) | 0.112
16 | ATCGGAACTTGGGTTCTAACCTGTTGCCT (site ATCGGAACTAG) | 1.01
17 | ATCGGAACTTGGGTTCTAACCTGTTGCCT (site ATCGGACCTAG) | 0.0301
18 | ATCGGAACTTGGGTTCTAACCTGTTGCCT (site ATCGGAGCTAG) | 0.13
19 | ATCGGAACTTGGGTTCTAACCTGTTGCCT (site ATCGGATCTAG) | 0.209
20 | ATCGGACCTTGGGTTCTAACCTGTTGCTG (site ATCGGACCTCA) | 0.901
21 | ATCGGACCTTGGGTTCTAACCTGTTGCTG (site TATAATGCTAC) | 0.148
22 | ATCGGAGCTTGGGTTCTAACCTGTTGCAG (site ATCGGAGCTCA) | 0.504

Row | Sequence | recombinant barcode read abundance (log10)
23 | ATCGGAGCTTGGGTTCTAACCTGTTGCAG (site ATCGGAGCTCC) | 0.166
24 | ATCGGAGCTTGGGTTCTAACCTGTTGCAG (site ATCGGAGCTCG) | 0.294
25 | ATCGGAGCTTGGGTTCTAACCTGTTGCAG (site ATCGGAGCTCT) | 0.953
26 | ATCGGAGCTTGGGTTCTAACCTGTTGCCG (site ATCGGAGCTCA) | 0.165
27 | ATCGGAGCTTGGGTTCTAACCTGTTGCCG (site ATCGGAGCTCC) | 0.0715
28 | ATCGGAGCTTGGGTTCTAACCTGTTGCCG (site ATCGGAGCTCG) | 0.497
29 | ATCGGAGCTTGGGTTCTAACCTGTTGCCG (site ATCGGAGCTCT) | 0.123
30 | ATCGGTCCTTGGGTTCTAACCTGTTGCCT (site ATAGGTCCTAG) | 0.476
31 | ATCGGTCCTTGGGTTCTAACCTGTTGCCT (site ATCGGTCCTAG) | 1.29
32 | ATCGGTCCTTGGGTTCTAACCTGTTGCCT (site ATGGGTCCTAG) | 0.0682
33 | ATCGGTCCTTGGGTTCTAACCTGTTGCCT (site ATTGGTCCTAG) | 0.174
34 | ATCGTACCTTGGGTTCTAACCTGTTGCTA (site ATCGTACCTTA) | 0.0937
35 | ATCGTACCTTGGGTTCTAACCTGTTGCTA (site CAAAAGGCTAG) | 0.973
36 | ATCGTTGCTTGGGTTCTAACCTGTTGCCT (site ATCGTTGCTAG) | 0.657
37 | ATCGTTGCTTGGGTTCTAACCTGTTGCCT (site CTCGTTGCTAG) | 0.0176
38 | ATCGTTGCTTGGGTTCTAACCTGTTGCCT (site GTCGTTGCTAG) | 0.0617
39 | ATCGTTGCTTGGGTTCTAACCTGTTGCCT (site TTCGTTGCTAG) | 0.0404
40 | ATCTAGGCTTGGGTTCTAACCTGTTGCCG (site ATCTAGGCTCG) | 0.0337
41 | ATCTAGGCTTGGGTTCTAACCTGTTGCCG (site CATAGATCTAT) | 0.099
42 | ATCTGGGCTTGGGTTCTAACCTGTTGCCT (site AACTGGGCTAG) | 0.339
43 | ATCTGGGCTTGGGTTCTAACCTGTTGCCT (site ACCTGGGCTAG) | 0.0625
